Source: paper PMC11395096, “Study of Pentacyclic Triterpenes from Lyophilised Aguaje: Anti-Inflammatory and Antioxidant Properties” (International Journal of Molecular Sciences, 2024)
pEC50, pIC50: −log10 of the molar value. Structures can show the parent of a compound that is named as a salt.

How the values were obtained:
NO production [1] = test: NO inhibition assay, LPS-stimulated IC-21 cells; assay type: cell-based, Mus musculus; conditions: IC-21, + LPS 100 μg mL^−1, 72 h; for pIC50: compounds series
Excerpt: (§1) The IC-21 (Mus musculus macrophage cells, TIB-186) and RAW 264.7 (Mus musculus macrophage cells, TIB-71) cell lines used in this study were obtained from the American Type Culture Collection (ATCC, Manassas, VA, USA). The selection of IC-21 and RAW 264.7 cell lines for studies on inflammation and antioxidant activity is based on two main reasons: the cell type and their origin. Firstly, both IC-21 and RAW 264.7 cell lines are macrophages, which play a crucial role in the immune system, being essential for the inflammatory response and regulation of oxidative stress. These cells have the capacity to produce pro-inflammatory cytokines, express transcription factors such as NF-κB, and generate NO, making them ideal models to understand inflammatory mechanisms. Moreover, macrophages are involved in the activation of Nrf2, a transcription factor critical for the antioxidant response, allowing these cell lines to enable a comprehensive assessment of antioxidant activity within an inflammatory context.
(§2) Stock solutions of the samples (extracts and compounds) were prepared at a concentration of 1 mM using dimethyl sulfoxide (DMSO ≥ 99.9% Sigma-Aldrich, CAS No. 67-68-5, St. Louis, MO, USA) as the solvent. Dilutions from these stock solutions were then made to achieve concentrations between 100 and 0.20 μg mL^−1 or μM in the culture medium, which contained 0.5% DMSO. A control group consisting only of the culture medium with 0.5% DMSO was also included to determine its potential cytotoxicity.
(§3) The 50% cytotoxic concentration (CC50), 50% inhibitory concentration (IC50), and half-maximal effective concentration (EC50) values were calculated using the sigmoidal dose–response function. All experiments were conducted in triplicate, and the data obtained were expressed as the mean and standard deviation. A two-way analysis of variance (ANOVA) combined with Dunnett’s multiple comparisons test (p < 0.001) was performed for the cytotoxicity, NF-κB inhibition, NO inhibition and Nrf2 activation assays, while a one-way ordinary ANOVA combined with Dunnett’s multiple comparisons test (p < 0.001) was conducted for the SOD assay. All statistical analyses were performed using GraphPad Prism version 10.0.0 (La Jolla, CA, USA, www.graphpad.com, accessed on 28 August 2024).
(§4) To determine the anti-inflammatory activity of the samples (at the same concentration as in the viability assay), the […] was used, implementing the protocol adapted from Guo et al.. Cells were cultured in 96-well plates (1 × 10^4 cells per well). […] Absorbance was measured at 540 nm using a microplate reader.

Nrf2 [2] = test: Nrf2 activation assay, RAW 264.7 cells; assay type: cell-based, Mus musculus; conditions: RAW 264.7, 72 h, read-out: Activation of Nrf2 production EC50; for pEC50: compounds series
Excerpt: as §1, §2, §3
(§5) To determine the antioxidant response of the samples (at the same concentration as in the viability assay), the Nrf2 activation assay was used following the protocol carried out by Apaza Ticona et al.. Cells were cultured in 96-well plates (1 × 10^4 cells per well). […] Absorbance was measured at 540 nm using a microplate reader.

NF-κB [3] = test: NF-κB inhibition assay, LPS-stimulated RAW 264.7 cells; assay type: cell-based, Mus musculus; conditions: RAW 264.7, + LPS 100 μg mL^−1, 72 h; for pIC50: compounds series, read-out: Inhibition of NF-κB production IC50
Excerpt: as §1, §2, §3
(§6) To assess the anti-inflammatory potential of the samples at the same concentrations used in the cell viability assay, an NF-κB inhibition assay was used following the approach established by Apaza Ticona et al.. Cells were seeded in 96-well plates at a density of 3 × 10^3 cells per well. […] Absorbance was quantified at 450 nm using a microplate reader.

NO production [4] = test: NO inhibition assay, LPS-stimulated RAW 264.7 cells; assay type: cell-based, Mus musculus; conditions: RAW 264.7, + LPS 100 μg mL^−1, 72 h; for pIC50: compounds series
Excerpt: as §1, §2, §3, §4

[5] = target: Superoxide Dismutase (SOD); test: SOD activation assay (kit); assay type: biochemical; conditions: 72 h; for pEC50: compounds series
Method: as §3
To determine the antioxidant response of the samples (at the same concentration as in the viability assay), the SOD activation assay kit (Sigma-Aldrich, CAS No. MAK528, St. Louis, MO, USA) was used, implementing the protocol adapted from Vincent et al.. […] Absorbance was measured at 450 nm using a microplate reader.

RAW 264.7 cell line = test: NR (neutral red) viability assay, RAW 264.7 cells; assay type: cell-based, Mus musculus; conditions: RAW 264.7, 72 h, compounds series
Excerpt: as §1
(§7) Cultivated in a Roswell Park Memorial Institute (RPMI) 1640 medium (RPMI 1640 Sigma-Aldrich, CAS No. R7755, St. Louis, MO, USA) supplemented with 2 mM L-glutamine (≥99% Sigma-Aldrich, CAS No. 56-85-9, St. Louis, MO, USA), 10% foetal bovine serum (FBS Sigma-Aldrich, CAS No. TMS-016, St. Louis, MO, USA), and 10,000 units of penicillin and 10 mg streptomycin mL^−1 (Sigma-Aldrich, CAS No. P4333, St. Louis, MO, USA) in culture flasks, the cells were maintained in an incubator under normoxic conditions (20–21% O2) and a humidified atmosphere (5% CO2, at 37 °C).
as §2, §3
(§8) Cell viability was evaluated using a colorimetric assay in 96-well plates, employing 3-amino-7-dimethylamino-2-methylphenazine hydrochloride salt reagent (NR, Sigma-Aldrich, CAS No. 553-24-2, St. Louis, MO, USA). ACTD (≥95% Sigma-Aldrich, CAS No. 50-76-0, St. Louis, MO, USA) was used as a positive control, with a CC50 value of 0.01 μg mL^−1 for the extracts, or 0.008 μM for the compounds. The IC-21 and RAW 264.7 cell lines were cultured in 96-well plates at 37 °C with 5% CO2 until >90% confluency was achieved (1 × 10^4 cells per well). Subsequently, the cultures were treated with sample dilutions (100–0.20 μg mL^−1 or μM) for 72 h at 37 °C with 5% CO2 in phenol red-free RPMI. The supernatant was then discarded, and the cells were washed with phosphate-buffered saline (PBS) before being incubated with […] NR (50 μg mL^−1; 173 μM) for 3 h at 37 °C with 5% CO2. NR labelling was performed after DMSO treatment. […]

[6] = NR (neutral red) viability assay, RAW 264.7 cells; assay type: cell-based, Mus musculus; conditions: mouse, RAW 264.7 macrophage cells, RAW 264.7, 72 h, compounds series
Excerpt: as §1, §7, §2, §3, §8

NF-κB [7] = test: NF-κB inhibition assay, LPS-stimulated IC-21 cells; assay type: cell-based, Mus musculus; conditions: IC-21, + LPS 100 μg mL^−1, 72 h; for pIC50: compounds series, read-out: Inhibition of NF-κB production IC50
Excerpt: as §1, §2, §3, §6

IC-21 cell line = test: NR (neutral red) viability assay, IC-21 cells; assay type: cell-based, Mus musculus; conditions: IC-21, 72 h, compounds series
Excerpt: as §1, §7, §2, §3, §8

[8] = NR (neutral red) viability assay, IC-21 cells; assay type: cell-based, Mus musculus; conditions: mouse, IC-21 macrophage cells, IC-21, 72 h, compounds series
Excerpt: as §1, §7, §2, §3, §8

Nrf2 [9] = test: Nrf2 activation assay, IC-21 cells; assay type: cell-based; conditions: Mus musculus, 72 h, IC-21, 72 h, read-out: Activation of Nrf2 production EC50; for pEC50: compounds series
Excerpt: as §1, §2, §3, §5

Nrf2 [10] = test: Nrf2 activation assay, value not assigned to one cell line; assay type: cell-based, Mus musculus; conditions: for pEC50: compounds series
Method: as §5

NO production [11] = test: NO inhibition assay, value not assigned to one cell line; assay type: cell-based; conditions: Mus musculus; for pIC50: RAW264.7, across IC-21 and RAW 264.7 / cell line not given, compounds series
Method: as §4

NF-κB [12] = test: NF-κB inhibition assay, value not assigned to one cell line; assay type: cell-based; conditions: Mus musculus
Method: as §6

[13] = Mus musculus, RAW264.7, 72 h, extracts series
[14] = Mus musculus, RAW264.7, across IC-21 and RAW 264.7 / cell line not stated

C[C@H]1[C@H](C)CC[C@]2(C(=O)O)CC[C@]3(C)C(=CC(=O)[C@@H]4[C@@]5(C)CC[C@H](O)C(C)(C)[C@@H]5CC[C@]43C)[C@H]12 [compound 3, (3β)-3-hydroxy-11-oxours-12-en-28-oic acid]
pIC50 (NO production [1]; Mus musculus, 72 h): 4.78
pEC50 (Nrf2 [2]; Mus musculus, RAW264.7, 72 h): 5.94
pIC50 (NF-κB [3]; Mus musculus, RAW264.7, 72 h): 4.57
pIC50 (NO production [4]; Mus musculus, RAW264.7, 72 h): 4.61
pEC50 [5]: 4.88
CC50 (RAW 264.7 cell line): 92.4 µM
CC50 at 72 h [6]: 92.4 µM
pIC50 (NF-κB [7]; Mus musculus, 72 h): 4.68
CC50 (IC-21 cell line): 88.5 µM
CC50 at 72 h [8]: 88.5 µM
pEC50 (Nrf2 [9]): 5.99

COC(=O)[C@]12CCC(C)(C)C[C@H]1[C@H]1C(=O)C=C3[C@@]4(C)C=C(C#N)C(=O)C(C)(C)[C@@H]4CC[C@@]3(C)[C@]1(C)CC2 [CDDO-Me, bardoxolone methyl, reference compound]
pEC50 (Nrf2 [2]; Mus musculus, RAW264.7, 72 h): 9.89
EC50 (Nrf2 [2]; [13]): 0.08 ng/mL
pEC50 (Nrf2 [10]; [14]): 9.89 to 10.05
EC50 (Nrf2 [10]; Mus musculus, cell line not stated, extracts series): 0.07 ng/mL
pEC50 (Nrf2 [10]; across IC-21 and RAW 264.7 / cell line not given): 9.96
pEC50 (Nrf2 [9]): 10.05
EC50 (Nrf2 [9]; extracts series): 0.05 ng/mL

O=C(O)c1cc(O)c(O)c(O)c1 [GA, gallic acid, reference compound]
pEC50 [5]: 4.92
SOD activation EC50 ([5]; extracts series): 2.06 µg/mL

C[C@H]1[C@H](C)CC[C@]2(C(=O)O)CC[C@]3(C)C(=CC(=O)[C@@H]4[C@@]5(C)CCC(=O)C(C)(C)[C@@H]5CC[C@]43C)[C@H]12 [compound 1, 3,11-dioxours-12-en-28-oic acid]
pIC50 (NO production [1]; Mus musculus, 72 h): 5.32
pIC50 (NO production [11]): 5.18 to 5.32
pEC50 (Nrf2 [2]; Mus musculus, RAW264.7, 72 h): 6.26
pEC50 (Nrf2 [2]): 6.26
pIC50 (NF-κB [3]; Mus musculus, RAW264.7, 72 h): 5.09
pIC50 (NO production [4]; Mus musculus, RAW264.7, 72 h): 5.18
pEC50 [5]: 5.73
pEC50 (Nrf2 [10]; [14]): 6.26 to 6.61
CC50 (RAW 264.7 cell line): 75.4 µM
CC50 at 72 h [6]: 75.4 µM
pIC50 (NF-κB [7]; Mus musculus, 72 h): 5.13
CC50 (IC-21 cell line): 67.6 µM
CC50 at 72 h [8]: 67.6 µM
pIC50 (NF-κB [12]; RAW264.7, across IC-21 and RAW 264.7 / cell line not given, compounds series, read-out: NF-κB inhibition IC50): 5.09 to 5.13
pEC50 (Nrf2 [9]): 6.61

CC1=C(O)C(=O)C=C2C1=CC=C1[C@@]2(C)CC[C@@]2(C)[C@@H]3C[C@](C)(C(=O)O)CC[C@]3(C)CC[C@]12C [CEL, celastrol]
pIC50 (NF-κB [12]; RAW264.7, read-out: NF-κB inhibition IC50): 5.13
IC50 (NF-κB [12]; read-out: NF-κB inhibition IC50): 3.34 µg/mL

[H]/N=C(/NC)NCCC[C@H](N)C(=O)O [LNMMA, N^G-methyl-L-arginine acetate salt]
pIC50 (NO production [1]; Mus musculus, 72 h): 5.19
IC50 (NO production [1]; Mus musculus, 72 h, extracts series): 1.57 µg/mL
pIC50 (NO production [11]): 5.18
IC50 (NO production [11]; cell line not stated, extracts series): 1.61 µg/mL
pIC50 (NO production [4]; Mus musculus, RAW264.7, 72 h): 5.17
IC50 (NO production [4]; [13]): 1.64 µg/mL

lipopolysaccharide [LPS, reference compound]
pIC50 (NO production [1]): 4.01
Inhibition of NO production IC50 (NO production [1]; extracts series): 95.2 µg/mL
pIC50 (NF-κB [3]): 4.00
Inhibition of NF-κB production IC50 (NF-κB [3]; extracts series): 98.7 µg/mL
pIC50 (NO production [4]): 4.01
Inhibition of NO production IC50 (NO production [4]; extracts series): 97.2 µg/mL
pIC50 (NF-κB [7]): 4.02
Inhibition of NF-κB production IC50 (NF-κB [7]; extracts series): 97.5 µg/mL

CC(=O)O[C@H]1CC[C@]2(C)[C@H]3C(=O)C=C4[C@@H]5[C@@H](C)[C@H](C)CC[C@]5(C(=O)O)CC[C@@]4(C)[C@]3(C)CC[C@H]2C1(C)C [compound 2, (3β)-3-acetyloxy-11-oxours-12-en-28-oic acid]
pIC50 (NO production [1]; Mus musculus, 72 h): 4.95
pEC50 (Nrf2 [2]; Mus musculus, RAW264.7, 72 h): 6.11
pIC50 (NF-κB [3]; Mus musculus, RAW264.7, 72 h): 4.70
pIC50 (NO production [4]; Mus musculus, RAW264.7, 72 h): 4.81
pEC50 [5]: 5.13
CC50 (RAW 264.7 cell line): 84.9 µM
CC50 at 72 h [6]: 84.9 µM
pIC50 (NF-κB [7]; Mus musculus, 72 h): 4.87
CC50 at 72 h [8]: 78.5 µM
pEC50 (Nrf2 [9]): 6.28
